From article PMC8376931, “Structure activity relationships and the binding mode of quinolinone-pyrimidine hybrids as reversal agents of multidrug resistance mediated by P-gp” (Scientific Reports, 2021)
Where two headings read alike, the source gives them in different places.

Experiments:
K562 cells = experiment: Doxorubicin intracellular accumulation assay (flow cytometry) in K562; format: cell-based; design: key: MFI with inhibitor / MFI of Dox alone; conditions: 5 μM Dox
Experimental: (§1) The intracellular accumulation of the fluorescent probes, Dox and Rho123, was determined by monitoring its fluorescence intensity using flow cytometry (96-well plate format), as previously reported. The inhibition on the outward transport of these P-gp substrates results in an increased […] fluorescence intensity (MFI). […] Those compounds showing inhibition on P-gp at the maximum tested concentration were further evaluated at serial dilutions to determinate their MECs. […] The plates were then incubated in a 5% CO2 incubator for 1 h at 37 °C. Afterwards, 5 μM Dox was added to each well. The other fluorescent specific substrate of P-gp, Rho123, however, was added at 500 ng/mL to additionally measure the ability of the most promising compounds to block its efflux. Subsequently, cells from both assays were washed twice with cold PBS, and 15,000 events from each sample were analyzed to determine the cell-associated fluorescence. Dead cells were eliminated by means of forward- and side-scatter parameters. […] The blocking of the P-gp transport function was evaluated by the parameter FIR, calculated as the ratio of the MFI of Dox or Rho123 with the addition of the likely inhibitor to the MFI of Dox or Rho123 alone.

P-gp [1] = target: T1, P-gp (Homo sapiens, UniProt P08183); conditions: 1 h
Experimental: as §1

[2] = MTT cytotoxicity assay in Lucena 1; format: cell-based; conditions: human, Lucena 1 cells, read-out: IC50 (cytotoxicity) against Lucena 1
Experimental: (§2) Then 0.5 mg/mL MTT in PBS was added. After additional incubation for 4 h, the formazan crystals obtained were dissolved in DMSO and the absorbance at 595 nm was read on an iMark micro-plate reader (Bio-Rad, USA). IC50 values for cytotoxicity were then calculated as reported[50] using nonlinear regression by GraphPad Prism 7 (Graphpad Software, Inc., San Diego, CA, USA, www.graphpad.com).
(§3) The cells were incubated at 37 °C at 5% CO2 for 48 h and the same protocol described above was followed. IC50 values of Dox were then obtained.

[3] = MTT cytotoxicity assay in K562; format: cell-based; conditions: human, K562 cells, read-out: IC50 (cytotoxicity) against K562
Experimental: as §2, §3

P-gp [4] = target: T1, P-gp
Experimental: The intracellular accumulation of the fluorescent probes, Dox and Rho123, was determined by monitoring its fluorescence intensity using flow cytometry (96-well plate format), as previously reported. The inhibition on the outward transport of these P-gp substrates results in an increased […] fluorescence intensity (MFI). […] The plates were then incubated in a 5% CO2 incubator for 1 h at 37 °C. Afterwards, 5 μM Dox was added to each well. The other fluorescent specific substrate of P-gp, Rho123, however, was added at 500 ng/mL to additionally measure the ability of the most promising compounds to block its efflux. Subsequently, cells from both assays were washed twice with cold PBS, and 15,000 events from each sample were analyzed to determine the cell-associated fluorescence. Dead cells were eliminated by means of forward- and side-scatter parameters. […] The blocking of the P-gp transport function was evaluated by the parameter FIR, calculated as the ratio of the MFI of Dox or Rho123 with the addition of the likely inhibitor to the MFI of Dox or Rho123 alone.

T1 sequence (P08183 whole entry): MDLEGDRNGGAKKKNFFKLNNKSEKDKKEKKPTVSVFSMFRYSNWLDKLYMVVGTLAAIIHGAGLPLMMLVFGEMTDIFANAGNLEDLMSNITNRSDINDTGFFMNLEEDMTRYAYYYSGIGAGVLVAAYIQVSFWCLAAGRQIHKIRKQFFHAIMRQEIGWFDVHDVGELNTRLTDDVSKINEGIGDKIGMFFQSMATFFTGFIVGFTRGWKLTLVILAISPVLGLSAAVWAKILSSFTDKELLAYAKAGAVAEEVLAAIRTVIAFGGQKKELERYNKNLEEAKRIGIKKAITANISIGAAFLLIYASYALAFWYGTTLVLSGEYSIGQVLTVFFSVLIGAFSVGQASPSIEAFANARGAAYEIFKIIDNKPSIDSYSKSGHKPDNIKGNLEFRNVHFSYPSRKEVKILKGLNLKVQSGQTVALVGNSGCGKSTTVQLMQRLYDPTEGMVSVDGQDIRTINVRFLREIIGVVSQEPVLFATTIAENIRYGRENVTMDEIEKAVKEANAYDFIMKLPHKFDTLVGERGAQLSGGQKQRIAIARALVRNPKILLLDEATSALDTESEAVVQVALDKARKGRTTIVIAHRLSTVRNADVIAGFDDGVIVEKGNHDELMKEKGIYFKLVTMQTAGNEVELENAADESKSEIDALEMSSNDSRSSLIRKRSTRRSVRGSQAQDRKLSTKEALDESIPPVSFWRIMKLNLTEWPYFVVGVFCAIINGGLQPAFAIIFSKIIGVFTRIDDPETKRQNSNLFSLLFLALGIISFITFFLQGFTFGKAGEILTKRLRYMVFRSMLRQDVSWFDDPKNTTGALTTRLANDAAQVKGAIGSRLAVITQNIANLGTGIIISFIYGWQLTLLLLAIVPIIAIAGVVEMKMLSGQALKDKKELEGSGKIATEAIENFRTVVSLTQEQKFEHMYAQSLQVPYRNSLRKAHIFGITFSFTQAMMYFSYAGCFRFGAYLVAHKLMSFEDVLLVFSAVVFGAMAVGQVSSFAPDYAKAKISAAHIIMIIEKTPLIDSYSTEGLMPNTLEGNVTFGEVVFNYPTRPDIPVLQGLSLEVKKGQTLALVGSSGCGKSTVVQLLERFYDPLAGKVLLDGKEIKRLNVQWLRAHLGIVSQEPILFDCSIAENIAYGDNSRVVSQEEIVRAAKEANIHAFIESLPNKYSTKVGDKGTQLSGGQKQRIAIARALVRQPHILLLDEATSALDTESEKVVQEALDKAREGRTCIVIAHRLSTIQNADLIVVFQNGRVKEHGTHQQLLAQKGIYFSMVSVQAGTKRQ

SMILES | FIR K562 (K562 cells; compound 20 µM) | minimum effective concentration (MEC), Dox accumulation (P-gp [1]) | FIR Lucena 1 (P-gp [1]; 5 µM) | FIR Lucena 1 (P-gp [1]; 10 µM) | FIR Lucena 1 (P-gp [1]; 20 µM) | FIR Lucena 1 (P-gp [1]; 1.25 µM) | FIR Lucena 1 (P-gp [1]; 2.5 µM) | FIR Lucena 1 (P-gp [1]; 0.31 µM) | FIR Lucena 1 (P-gp [1]; 0.62 µM) | FIR K562 (K562 cells; compound 5 µM) | FIR K562 (K562 cells; compound 10 µM) | IC50 at 48 h [2] | IC50 at 48 h [3] | Rho123 fluorescence intensity, fold lower in Lucena 1 with respect to K562 (P-gp [4])
CC(=O)c1ccc(Nc2nccc(-c3ccc4ccccc4c3)n2)cc1 [Compound 3] | 0.98 ± 0.07 | 10 µM | 1.06 ± 0.05 | 1.24 ± 0.02 | 1.70 ± 0.22 |  |  |  |  |  |  |  |  | 
O=c1[nH]c2ccccc2cc1CNc1ccc(Nc2nccc(-c3ccc(Cl)cc3)n2)cc1 [Compound 4a] | 0.89 ± 0.03 | 20 µM |  | 1.03 ± 0.01 | 1.21 ± 0.04 |  |  |  |  |  |  |  |  | 
COc1ccc2[nH]c(=O)c(CNc3ccc(Nc4nccc(-c5ccc(Cl)cc5)n4)cc3)cc2c1 [Compound 4b] | 0.90 ± 0.03 | 2.5 µM | 1.20 ± 0.06 | 1.23 ± 0.08 | 1.29 ± 0.08 | 1.10 ± 0.13 | 1.20 ± 0.06 |  |  |  |  |  |  | 
COc1cc2cc(CNc3ccc(Nc4nccc(-c5ccc(Cl)cc5)n4)cc3)c(=O)[nH]c2cc1OC [Compound 4c] | 0.93 ± 0.02 | 0.62 µM | 1.32 ± 0.09 | 1.28 ± 0.07 | 1.39 ± 0.07 | 1.24 ± 0.08 | 1.31 ± 0.11 | 1.03 ± 0.01 | 1.11 ± 0.03 |  |  |  |  | 
O=c1[nH]c2ccccc2cc1CNc1ccc(Nc2nccc(-c3ccc4ccccc4c3)n2)cc1 [Compound 5a] | 0.86 ± 0.02 | 2.50 µM | 1.06 ± 0.01 | 1.10 ± 0.02 | 1.24 ± 0.07 | 0.95 ± 0.05 | 1.05 ± 0.01 |  |  |  |  |  |  | 
COc1ccc2[nH]c(=O)c(CNc3ccc(Nc4nccc(-c5ccc6ccccc6c5)n4)cc3)cc2c1 [Compound 5b] | 0.96 ± 0.02 | 0.62 µM | 1.31 ± 0.08 | 1.25 ± 0.07 | 1.36 ± 0.08 | 1.21 ± 0.07 | 1.29 ± 0.08 | 1.07 ± 0.03 | 1.16 ± 0.07 |  |  |  |  | 
Clc1ccc(-c2ccnc(N3CCNCC3)n2)cc1 [Compound 6] | 1.20 ± 0.02 |  | 1.18 ± 0.03 | 1.38 ± 0.08 | 1.65 ± 0.12 | 1.09 ± 0.06 | 1.18 ± 0.04 |  |  | 1.09 ± 0.04 | 1.19 ± 0.02 |  |  | 
O=c1[nH]c2ccccc2cc1CN1CCN(c2nccc(-c3ccc(Cl)cc3)n2)CC1 [Compound 6a] | 0.92 ± 0.04 | 5 µM | 1.15 ± 0.05 | 1.30 ± 0.05 | 1.40 ± 0.05 |  | 1.06 ± 0.04 |  |  |  |  |  |  | 
COc1ccc2[nH]c(=O)c(CN3CCN(c4nccc(-c5ccc(Cl)cc5)n4)CC3)cc2c1 [Compound 6b] | 0.94 ± 0.10 | 2.5 µM | 1.32 ± 0.09 | 1.44 ± 0.13 | 1.55 ± 0.07 | 1.01 ± 0.03 | 1.15 ± 0.05 |  |  |  |  |  |  | 
c1ccc2cc(-c3ccnc(N4CCNCC4)n3)ccc2c1 [Compound 7] | 1.20 ± 0.06 |  | 1.19 ± 0.05 | 1.42 ± 0.02 | 2.23 ± 0.26 |  | 1.07 ± 0.10 |  |  |  | 1.10 ± 0.08 | 17.9 ± 0.55 µM |  | 
O=c1[nH]c2ccccc2cc1CN1CCN(c2nccc(-c3ccc4ccccc4c3)n2)CC1 [Compound 7a] | 1.02 ± 0.07 | 1.25 µM | 1.38 ± 0.11 | 1.52 ± 0.17 | 1.33 ± 0.11 | 1.10 ± 0.03 | 1.28 ± 0.12 |  | 0.95 ± 0.02 |  |  |  |  | 
COc1cc2cc(CN3CCN(c4nccc(-c5ccc6ccccc6c5)n4)CC3)c(=O)[nH]c2cc1OC [Compound 7c] | 1.04 ± 0.03 | 0.62 µM | 1.27 ± 0.04 | 1.29 ± 0.11 | 1.45 ± 0.10 | 1.24 ± 0.05 | 1.23 ± 0.02 | 1.08 ± 0.05 | 1.22 ± 0.07 |  |  | 10.2 ± 0.23 µM | 6.7 ± 0.2 µM | 
NCCN1CCN(c2nccc(-c3ccc(Cl)cc3)n2)CC1 [Compound 10] | 1.18 ± 0.03 | 1.25 µM | 1.41 ± 0.09 | 1.30 ± 0.05 | 1.72 ± 0.14 | 1.11 ± 0.03 | 1.26 ± 0.04 |  | 1.06 ± 0.04 |  | 0.98 ± 0.06 |  |  | 
NCCN1CCN(c2nccc(-c3ccc4ccccc4c3)n2)CC1 [Compound 10a] | 1.26 ± 0.06 | 1.25 µM | 1.30 ± 0.08 | 1.63 ± 0.17 | 2.36 ± 0.25 | 1.13 ± 0.03 | 1.21 ± 0.02 |  | 1.04 ± 0.03 | 0.98 ± 0.01 | 1.13 ± 0.02 | 17.1 ± 0.95 µM | 17.7 ± 0.15 µM | 
COC(=O)c1ccccc1-c1c2ccc(=N)cc-2oc2cc(N)ccc12 [Rhodamine 123, reference compound] |  |  |  |  |  |  |  |  |  |  |  |  |  | 5.87 fold
COc1cccc2c1C(=O)c1c(O)c3c(c(O)c1C2=O)C[C@@](O)(C(=O)CO)C[C@@H]3O[C@H]1C[C@H](N)[C@H](O)[C@H](C)O1 [doxorubicin, reference compound] |  |  |  |  |  |  |  |  |  |  |  | 23 ± 5.41 µM | 0.64 ± 0.13 µM | 
COc1ccc(CCN(C)CCCC(C#N)(c2ccc(OC)c(OC)c2)C(C)C)cc1OC (centres unmarked) [verapamil, reference compound] | 1.08 ± 0.05 |  |  |  |  |  |  |  |  |  |  |  |  | 
